# Measurements taken from patent US8445501B2, “Substituted 7-carboxamido-pyrrolo[3,2-d]pyrimidines” (Takeda GmbH, priority 2008, dated 2013).
# Molecular target: T1, human PDE5 (Homo sapiens, UniProt O76074)
# T1 construct: from tissue; host or cells: platelets from fresh blood of human donors (lysate, 10,000 g supernatant)
# Assay: Inhibition of the type 5 phosphodiesterase (PDE5) activity, modified SPA test with platelet lysate
# Assay type: biochemical
# Settings: PDE5 from human platelet lysate, 0.5 μM cGMP
# Method: Method for Measuring Inhibition of the Type 5 Phosphodiesterase (PDE5) Activity:
# As a source for human PDE5, platelets are used. For that purpose, 150 ml fresh blood from human donors anticoagulated with citrate [final concentration 0.3% (w/v)] is centrifuged at 200 g for 10 min to obtain the so-called platelet-rich-plasma (PRP) as a supernatant. 1/10 volume of ACD solution (85 mM Na3-citrate, 111 mM D-glucose, 71 mM citric acid, pH 4.4) is added to 9/10 volume of PRP. After centrifugation (1,400 g, 10 min) the cell pellet is resuspended in 3 ml homogenization buffer (NaCl 140 mM, KCl 3.8 mM, EGTA (ethylene glycol tetraacetic acid) 1 mM, MgCl2 1 mM, Tris-HCl 20 mM, beta-mercaptoethanol 1 mM, pH 8.2) plus protease-inhibitor mix giving rise to the final concentrations of 0.5 mM Pefablock (Roche), 10 μM Leupeptin, 5 μM Trypsininhibitor, 2 mM Benzamidin and 10 μM Pepstatin A. The suspension is sonified and thereafter centrifuged for 15 min at 10,000 g. The resulting supernatant (platelet lysate) is used for enzymatic testings.
# PDE5A1 activity is inhibited by the compounds of the invention in a modified SPA (scintillation proximity assay) test, supplied by Amersham Biosciences (see procedural instructions “phosphodiesterase [3H]cAMP SPA enzyme assay, code TRKQ 7090”), carried out in 96-well microtitre plates (MTP's). The test volume is 100 μl and contains 20 mM Tris buffer (pH 7.4), 0.1 mg of BSA (bovine serum albumin)/ml, 5 mM Mg^2+, 1 μM motapizone, 10 nM PDE2 inhibitor 2-(3,4-dimethoxybenzyl)-7-[(1R,2R)-2-hydroxy-1-(2-phenylethyl)propyl]-5-methylimidazo[5,1-f][1,2,4]triazin-4(3H)-one, 0.5 μM cGMP (cyclic guanosine monophosphate) (including about 50,000 cpm of [3H]cGMP as a tracer), 1 μl of the respective compound dilution in dimethylsulfoxide (DMSO) and sufficient PDE5-containing platelet lysat (10,000×g supernatant, see above) to ensure that 10-20 wt % of the cGMP is converted under the said experimental conditions. […] After a preincubation of 5 min at 37° C., the reaction is started by adding the substrate (cGMP) and the assay is incubated for a further 15 min; after that, it is stopped by adding SPA beads (50 μl). In accordance with the manufacturer's instructions, the SPA beads had previously been resuspended in water, but are then diluted 1:3 (v/v) in water; the diluted solution also contains 3 mM […] (IBMX) to ensure a complete PDE activity stop. After the beads have been sedimented (>30 min), the MTP's are analyzed in commercially available luminescence detection de-vices. The corresponding IC50 values of the compounds for the inhibition of PDE activity are deter-mined from the concentration-effect curves by means of non-linear regression.
row,IC50,Compound
1,0.49 nM,"CCOC(=O)N1CC[C@H](NC(=O)c2c[nH]c3c(-c4c(OCC5CC5)ccc5c4OCO5)ncnc23)C1 [Example 22, (S)-3-({1-[4-(5-Cyclopropylmethoxy-benzo[1,3]dioxol-4-yl)-5H-pyrrolo[3,2-d]pyrimidin-7-yl]-methanoyl}-amino)-pyrrolidine-1-carboxylic acid ethyl ester]"
2,0.447 nM,"O=CN1CCC(CNC(=O)c2c[nH]c3c(-c4c(OCC5CC5)ccc5c4OCO5)ncnc23)CC1 [Example 23, 4-(5-Cyclopropylmethoxy-benzo[1,3]dioxol-4-yl)-5H-pyrrolo[3,2-d]pyrimidine-7-carboxylic acid (1-formyl-piperidin-4-ylmethyl)-amide]"
3,0.302 nM,"CC(=O)N1CCC(CNC(=O)c2c[nH]c3c(-c4c(OCC5CC5)ccc5c4OCO5)ncnc23)CC1 [Example 24, 4-(5-Cyclopropylmethoxy-benzo[1,3]dioxol-4-yl)-5H-pyrrolo[3,2-d]pyrimidine-7-carboxylic acid (1-acetyl-piperidin-4-ylmethyl)-amide]"
4,0.24 nM,"O=C(NCC1CCN(C(=O)C2CC2)CC1)c1c[nH]c2c(-c3c(OCC4CC4)ccc4c3OCO4)ncnc12 [Example 25, 4-(5-Cyclopropylmethoxy-benzo[1,3]dioxol-4-yl)-5H-pyrrolo[3,2-d]pyrimidine-7-carboxylic acid [1-(1-cyclopropyl-methanoyl)-piperidin-4-ylmethyl]-amide]"
5,0.457 nM,"COCC(=O)N1CCC(CNC(=O)c2c[nH]c3c(-c4c(OCC5CC5)ccc5c4OCO5)ncnc23)CC1 [Example 26, 4-(5-Cyclopropylmethoxy-benzo[1,3]dioxol-4-yl)-5H-pyrrolo[3,2-d]pyrimidine-7-carboxylic acid [1-(2-methoxy-ethanoyl)-piperidin-4-ylmethyl]-amide]"
6,0.372 nM,"CCOC(=O)N1CCC(CNC(=O)c2c[nH]c3c(-c4c(OCC5CC5)ccc5c4OCO5)ncnc23)CC1 [Example 27, 4-[({1-[4-(5-Cyclopropylmethoxy-benzo[1,3]dioxol-4-yl)-5H-pyrrolo[3,2-d]pyrimidin-7-yl]-methanoyl}-amino)-methyl]-piperidine-1-carboxylic acid ethyl ester]"
7,0.692 nM,"O=CN1CCCC(CNC(=O)c2c[nH]c3c(-c4c(OCC5CC5)ccc5c4OCO5)ncnc23)C1 (centres unmarked) [Example 28, 4-(5-Cyclopropylmethoxy-benzo[1,3]dioxol-4-yl)-5H-pyrrolo[3,2-d]pyrimidine-7-carboxylic acid (1-formyl-piperidin-3-ylmethyl)-amide]"
8,0.275 nM,"CCC(=O)N1CCCC(CNC(=O)c2c[nH]c3c(-c4c(OCC5CC5)ccc5c4OCO5)ncnc23)C1 (centres unmarked) [Example 29, 4-(5-Cyclopropylmethoxy-benzo[1,3]dioxol-4-yl)-5H-pyrrolo[3,2-d]pyrimidine-7-carboxylic acid (1-propionyl-piperidin-3-ylmethyl)-amide]"
9,0.479 nM,"COCC(=O)N1CCCC(CNC(=O)c2c[nH]c3c(-c4c(OCC5CC5)ccc5c4OCO5)ncnc23)C1 (centres unmarked) [Example 30, 4-(5-Cyclopropylmethoxy-benzo[1,3]dioxol-4-yl)-5H-pyrrolo[3,2-d]pyrimidine-7-carboxylic acid [1-(2-methoxy-acetyl)piperidin-3-ylmethyl]-amide]"
10,0.224 nM,"CCOC(=O)N1CCCC(CNC(=O)c2c[nH]c3c(-c4c(OCC5CC5)ccc5c4OCO5)ncnc23)C1 (centres unmarked) [Example 31, 3-({[4-(5-Cyclopropylmethoxy-benzo[1,3]dioxol-4-yl)-5H-pyrrolo[3,2-d]pyrimidine-7-carbonyl]-amino}-methyl)-piperidine-1-carboxylic acid ethyl ester]"
11,1.1 nM,"O=CN1CCC(CNC(=O)c2c[nH]c3c(-c4c(OCC5CC5)ccc5c4OCO5)ncnc23)C1 (centres unmarked) [Example 32, 4-(5-Cyclopropylmethoxy-benzo[1,3]dioxol-4-yl)-5H-pyrrolo[3,2-d]pyrimidine-7-carboxylic acid (1-formyl-pyrrolidin-3-ylmethyl)-amide]"
12,1.51 nM,"COCC(=O)N1CCC(CNC(=O)c2c[nH]c3c(-c4c(OCC5CC5)ccc5c4OCO5)ncnc23)C1 (centres unmarked) [Example 33, 4-(5-Cyclopropylmethoxy-benzo[1,3]dioxol-4-yl)-5H-pyrrolo[3,2-d]pyrimidine-7-carboxylic acid [1-(2-methoxy-acetyl)-pyrrolidin-3-ylmethyl]-amide]"
13,0.347 nM,"CCOC(=O)N1CCC(CNC(=O)c2c[nH]c3c(-c4c(OCC5CC5)ccc5c4OCO5)ncnc23)C1 (centres unmarked) [Example 34, 3-({[4-(5-Cyclopropylmethoxy-benzo[1,3]dioxol-4-yl)-5H-pyrrolo[3,2-d]pyrimidine-7-carbonyl]-amino}-methyl)-pyrrolidine-1-carboxylic acid ethyl ester]"
14,0.708 nM,"O=CN1CCOC(CNC(=O)c2c[nH]c3c(-c4c(OCC5CC5)ccc5c4OCO5)ncnc23)C1 (centres unmarked) [Example 35, 4-(5-Cyclopropylmethoxy-benzo[1,3]dioxol-4-yl)-5H-pyrrolo[3,2-d]pyrimidine-7-carboxylic acid (4-formyl-morpholin-2-ylmethyl)-amide]"
15,0.49 nM,"CCC(=O)N1CCOC(CNC(=O)c2c[nH]c3c(-c4c(OCC5CC5)ccc5c4OCO5)ncnc23)C1 (centres unmarked) [Example 36, 4-(5-Cyclopropylmethoxy-benzo[1,3]dioxol-4-yl)-5H-pyrrolo[3,2-d]pyrimidine-7-carboxylic acid (4-propionyl-morpholin-2-ylmethyl)-amide]"
16,0.912 nM,"COCC(=O)N1CCOC(CNC(=O)c2c[nH]c3c(-c4c(OCC5CC5)ccc5c4OCO5)ncnc23)C1 (centres unmarked) [Example 37, 4-(5-Cyclopropylmethoxy-benzo[1,3]dioxol-4-yl)-5H-pyrrolo[3,2-d]pyrimidine-7-carboxylic acid [4-(2-methoxy-acetyl)morpholin-2-ylmethyl]-amide]"
17,0.398 nM,"CCOC(=O)N1CCOC(CNC(=O)c2c[nH]c3c(-c4c(OCC5CC5)ccc5c4OCO5)ncnc23)C1 (centres unmarked) [Example 38, 2-({[4-(5-Cyclopropylmethoxy-benzo[1,3]dioxol-4-yl)-5H-pyrrolo[3,2-d]pyrimidine-7-carbonyl]-amino}-methyl)-morpholine-4-carboxylic acid ethyl ester]"
18,0.776 nM,"CC(=O)N1CC(NC(=O)c2c[nH]c3c(-c4c(OCC5CC5)ccc5c4OCO5)ncnc23)C1 [Example 39, 4-(5-Cyclopropylmethoxy-benzo[1,3]dioxol-4-yl)-5H-pyrrolo[3,2-d]pyrimidine-7-carboxylic acid (1-acetyl-azetidin-3-yl)-amide]"
19,0.427 nM,"CCC(=O)N1CC(NC(=O)c2c[nH]c3c(-c4c(OCC5CC5)ccc5c4OCO5)ncnc23)C1 [Example 40, 4-(5-Cyclopropylmethoxy-benzo[1,3]dioxol-4-yl)-5H-pyrrolo[3,2-d]pyrimidine-7-carboxylic acid (1-propionyl-azetidin-3-yl)-amide]"
20,0.891 nM,"COCC(=O)N1CC(NC(=O)c2c[nH]c3c(-c4c(OCC5CC5)ccc5c4OCO5)ncnc23)C1 [Example 41, 4-(5-Cyclopropylmethoxy-benzo[1,3]dioxol-4-yl)-5H-pyrrolo[3,2-d]pyrimidine-7-carboxylic acid [1-(2-methoxy-ethanoyl)-azetidin-3-yl]amide]"
21,0.191 nM,"CCOC(=O)N1CC(NC(=O)c2c[nH]c3c(-c4c(OCC5CC5)ccc5c4OCO5)ncnc23)C1 [Example 42, 3-({1-[4-(5-Cyclopropylmethoxy-benzo[1,3]dioxol-4-yl)-5H-pyrrolo[3,2-d]pyrimidin-7-yl]-methanoyl}-amino)-azetidine-1-carboxylic acid ethyl ester]"
22,0.282 nM,"O=CN1CCC(NC(=O)c2c[nH]c3c(-c4c(OCC5CC5)ccc5c4OCO5)ncnc23)CC1 [Example 43, 4-(5-Cyclopropylmethoxy-benzo[1,3]dioxol-4-yl)-5H-pyrrolo[3,2-d]pyrimidine-7-carboxylic acid (1-formyl-piperidin-4-yl)-amide]"
23,0.794 nM,"CCC(=O)N1CCC[C@H](NC(=O)c2c[nH]c3c(-c4c(OCC5CC5)ccc5c4OCO5)ncnc23)C1 [Example 44, 4-(5-Cyclopropylmethoxy-benzo[1,3]dioxol-4-yl)-5H-pyrrolo[3,2-d]pyrimidine-7-carboxylic acid ((S)-1-propionyl-piperidin-3-yl)-amide]"
